Where “and” joins values, the source holds several entries; their conditions need not be identical. Equal entries are not always repeated.
Tests used:
Type in all cases: biochemical
human CK1ε = target: T1, human CK1ε (Homo sapiens, UniProt P49674); experiment: In vitro kinase assay, CK1ε
T1 construct: purchased Invitrogen, Karlsruhe, Germany

CK1δkd = target: T2, CK1δkd (Rattus norvegicus, UniProt Q06486); experiment: In vitro kinase assay, CK1δ kinase domain; conditions: for activity against CK1δkd (in words, SAR discussion): kinase assays using a CK1 specific substrate
T2 construct: Recombinant CK1δ kinase domain (CK1δkd, NEB, Frankfurt am Main, Germany); purchased NEB, Frankfurt am Main, Germany
T2 sequence (Q06486 9-277 limits assumed): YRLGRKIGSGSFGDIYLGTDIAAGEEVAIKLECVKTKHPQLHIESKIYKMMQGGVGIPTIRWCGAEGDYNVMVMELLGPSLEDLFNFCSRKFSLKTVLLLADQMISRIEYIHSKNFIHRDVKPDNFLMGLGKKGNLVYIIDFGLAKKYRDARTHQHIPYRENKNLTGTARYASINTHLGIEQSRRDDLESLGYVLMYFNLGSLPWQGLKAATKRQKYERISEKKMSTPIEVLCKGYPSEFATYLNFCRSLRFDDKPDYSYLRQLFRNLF

GST-rat CK1δ = target: T3, GST-rat CK1δ (Rattus norvegicus, UniProt Q06486); experiment: In vitro kinase assay, GST-rat CK1δ
T3 construct: made in house; host or cells: bacteria (pGEX-2T)
T3 sequence (Q06486 whole entry): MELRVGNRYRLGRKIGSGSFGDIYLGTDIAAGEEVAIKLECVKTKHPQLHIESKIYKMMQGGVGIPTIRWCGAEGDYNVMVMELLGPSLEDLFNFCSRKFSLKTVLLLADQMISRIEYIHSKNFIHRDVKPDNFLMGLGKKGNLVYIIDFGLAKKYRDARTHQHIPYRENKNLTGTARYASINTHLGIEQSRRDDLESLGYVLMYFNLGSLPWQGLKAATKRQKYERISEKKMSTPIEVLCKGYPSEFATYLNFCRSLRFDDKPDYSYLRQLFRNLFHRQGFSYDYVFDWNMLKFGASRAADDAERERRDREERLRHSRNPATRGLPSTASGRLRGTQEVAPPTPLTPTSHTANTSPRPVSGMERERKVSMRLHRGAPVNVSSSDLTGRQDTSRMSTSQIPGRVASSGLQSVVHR

GST-rat CK1δ^M82F = target: T4, GST-rat CK1δ^M82F (Rattus norvegicus, UniProt Q06486, M82F); experiment: In vitro kinase assay, gatekeeper mutant; conditions: inhibitor at its determined IC50 concentration (Fig. 7)
T4 construct: made in house; host or cells: bacteria (pGEX-2T)
T4 sequence (Q06486 1-415 M82F): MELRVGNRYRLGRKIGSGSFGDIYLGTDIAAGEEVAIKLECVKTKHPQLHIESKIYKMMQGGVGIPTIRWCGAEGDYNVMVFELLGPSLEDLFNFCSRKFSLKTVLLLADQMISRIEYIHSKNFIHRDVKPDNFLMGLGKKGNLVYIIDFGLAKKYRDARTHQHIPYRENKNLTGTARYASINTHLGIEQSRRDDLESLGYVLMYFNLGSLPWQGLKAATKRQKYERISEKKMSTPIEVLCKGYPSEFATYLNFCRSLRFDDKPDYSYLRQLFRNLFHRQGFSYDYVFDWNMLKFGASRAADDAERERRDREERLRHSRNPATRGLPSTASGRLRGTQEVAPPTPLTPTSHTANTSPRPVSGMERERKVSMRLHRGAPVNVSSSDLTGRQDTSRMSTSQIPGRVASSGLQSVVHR
Experimental: For the expression of wt rat CK1δ and rat CK1δ^M82F as glutathione S-transferase fusion proteins the plasmids pGEX-2T-CK1δ (FP449) (Knippschild et al. [1997]) and pGEX-2T-CK1δ^M82F (FP1153) (Peifer et al. [2009]) were used.
(§1) Expression and purification of the GST-fusion proteins GST-mouse p53^1–64 (FP267), GST-rat CK1δ (FP449), GST-rat CK1δ^M82F (FP1153), GST-mouse CK1δTV1 (FP1170), and GST-mouse CK1δTV2 (FP1171) was carried out as described elsewhere (Wolff et al. [2005]). Expression of fusion proteins FP1170 and 1171 was either performed at 37°C for 2 h, or at 15°C for 14 h. FP449 and FP1153 were always expressed at 15°C for 14 h.
(§2) In vitro kinase assays were carried out in the presence of various potential inhibitors of CK1δ at an ATP concentration of 0.01 mM and dimethyl sulfoxide (DMSO) solvent control as described previously (Knippschild et al. [1996]). Where indicated higher ATP concentrations (0.05, 0.1, 0.25 and 0.5 mM) were used. The fusion protein GST-mouse p53^1−64 (FP267) was used as substrate. Recombinant CK1δ kinase domain (CK1δkd, NEB, Frankfurt am Main, Germany), GST-rat CK1δ (FP449), GST-rat CK1δ^M82F (FP1153), GST-mouse CK1δTV1, GST-mouse CK1δTV2 and recombinant human CK1ε (Invitrogen, Karlsruhe, Germany) were used as sources of enzyme. Phosphorylated proteins were separated by SDS-PAGE and the protein bands were visualized on dried gels by autoradiography. The phosphorylated protein bands were excised and quantified by Cherenkov counting.
Previously it has been shown that methionine 82 plays an important role as gatekeeper residue in the docking mode of isoxazoles to the ATP binding pocket since mutation of methionine 82 to phenylalanine blocks binding of this class of CK1δ specific inhibitors (Peifer et al. [2009]) while still binding ATP. Therefore, we now analyzed the effects of exchanging methionine 82 to phenylalanine on the ability of compounds 4, 5 and 6 to inhibit CK1δ activity.

GST-mouse CK1δTV1 = target: T5, GST-mouse CK1δTV1 (Mus musculus, UniProt Q9DC28); experiment: In vitro kinase assay, GST-mouse CK1δTV1; conditions: 0.01 mM ATP, substrate GST-mouse p53^1-64; mean ± SD; read-out: IC50 (μM) GST-CK1δ TV1
T5 construct: made in house; host or cells: bacteria (pGEX-2T)
T5 sequence (Q9DC28 whole entry): as the sequence (Q06486 whole entry) above
Text: (§3) CK1δTV1 and 2 (transcription variants 1 and 2) were PCR amplified from mouse cDNA (5′-primer TV1 and 2: 5′-[…]-3′, 3′-primer TV1: 5′-[…]-3′, 3′-primer TV2: 5′-[…]-3′) and cloned into pcDNA3.1/V5-His© TOPO® TA cloning vector (Invitrogen, Karlsruhe, Germany) before being subcloned into pGEX-2T expression vector via BamHI to generate plasmids pGEX-2T-mouse CK1δTV1 (FP1170) and pGEX-2T-mouse CK1δTV2 (FP1171).
as §1, §2

GST-mouse CK1δTV2 = target: T6, GST-mouse CK1δTV2 (Mus musculus, UniProt Q9DC28); experiment: In vitro kinase assay, GST-mouse CK1δTV2; conditions: 0.01 mM ATP, substrate GST-mouse p53^1-64; mean ± SD; read-out: IC50 (μM) GST-CK1δ TV2
T6 construct: made in house; host or cells: bacteria (pGEX-2T)
T6 sequence (Q9DC28 1-409 isoform Q9DC28-2): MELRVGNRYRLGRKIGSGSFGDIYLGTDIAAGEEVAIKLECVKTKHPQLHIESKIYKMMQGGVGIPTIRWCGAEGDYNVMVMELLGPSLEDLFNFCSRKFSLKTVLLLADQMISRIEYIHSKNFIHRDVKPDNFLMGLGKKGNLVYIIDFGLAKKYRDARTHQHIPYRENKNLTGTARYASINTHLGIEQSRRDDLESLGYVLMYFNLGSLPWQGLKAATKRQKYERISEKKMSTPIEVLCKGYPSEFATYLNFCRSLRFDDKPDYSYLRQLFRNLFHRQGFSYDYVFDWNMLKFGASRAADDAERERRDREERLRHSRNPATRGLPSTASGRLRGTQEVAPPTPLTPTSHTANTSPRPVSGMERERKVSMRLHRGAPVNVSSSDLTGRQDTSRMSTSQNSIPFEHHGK
Text: as §3, §1, §2

[1] = 0.01 mM ATP, substrate GST-mouse p53^1-64, mean ± SD
[2] = symbol, tested range 10–0.005 μM

T1 sequence (P49674 whole entry): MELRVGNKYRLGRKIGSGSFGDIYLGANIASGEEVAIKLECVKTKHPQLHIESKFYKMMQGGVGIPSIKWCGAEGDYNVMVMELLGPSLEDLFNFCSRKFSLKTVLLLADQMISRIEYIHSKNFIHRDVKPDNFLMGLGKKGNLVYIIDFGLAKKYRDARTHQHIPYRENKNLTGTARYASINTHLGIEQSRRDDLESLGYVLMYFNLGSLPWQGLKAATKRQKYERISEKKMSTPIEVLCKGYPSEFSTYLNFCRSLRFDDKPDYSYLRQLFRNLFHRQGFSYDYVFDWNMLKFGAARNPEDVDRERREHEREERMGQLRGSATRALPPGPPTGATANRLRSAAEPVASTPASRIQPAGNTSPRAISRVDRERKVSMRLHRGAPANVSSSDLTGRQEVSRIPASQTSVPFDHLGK

SMILES | IC50 (CK1δkd; [1]) | activity against CK1δkd (in words, SAR discussion) (CK1δkd) | IC50 (GST-rat CK1δ; [1]) | further results
O=C(Nc1nc(C(=O)Nc2nc3ccc(C(F)(F)F)cc3[nH]2)cs1)c1ccncc1 [Compound 4, 2-(Isonicotinamido)-N-(6-(trifluoromethyl)-1H-benzo[d]imidazol-2-yl)thiazole-4-carboxamide] | 0.409 ± 0.12 µM |  | 0.326 ± 0.19 µM | kinase activity of GST-CK1δ^M82F in comparison with inhibition of GST-wt CK1δ (GST-rat CK1δ^M82F): much more affected; IC50 (GST-mouse CK1δTV1): 0.18 ± 0.03 µM; IC50 (GST-mouse CK1δTV2): 0.505 ± 0.04 µM; inhibition of CK1ε in initial screen (human CK1ε; inhibitor 10 μM, 10 μM ATP (Fig. 1b)): significant inhibition; inhibition of CK1δkd in initial screen (CK1δkd; inhibitor 10 μM, 10 μM ATP (Fig. 1a)): significant inhibition; mode of inhibition (CK1δkd; inhibitor at IC50 concentration, ATP 0.01-0.5 mM (Fig. 6)): ATP competitive inhibitors; GST-wt CK1δ activity in the presence of inhibitor (GST-rat CK1δ; inhibitor at its determined IC50 concentration (Fig. 7)): clearly decreased
O=C(Nc1nc2ccccc2s1)c1csc(NC(=O)c2ccccc2OC(F)(F)F)n1 [Compound 9, 2-(2-Trifluoromethoxy-benzoylamino)-thiazole-4-carboxylic acid benzothiazol-2-ylamide] | 1.12 µM and 0.73 µM |  | 1.19 ± 0.39 µM | 
CS(=O)(=O)c1ccc2[nH]c(NC(=O)c3csc(NC(=O)c4ccccc4OC(F)(F)F)n3)nc2c1 [Compound 2, N-(5-(Methylsulfonyl)-1H-benzo[d]imidazol-2-yl)-2-(2-(trifluoromethoxy)benzamido)thiazole-4-carboxamide] | 1.23 ± 0.41 µM | diminished activity | 5.19 ± 1.14 µM | 
O=C(Nc1nc2ccc(C(F)(F)F)cc2[nH]1)c1csc(NC(=O)c2ccco2)n1 [Compound 7, 2-(Furan-2-carboxamido)-N-(6-(trifluoromethyl)-1H-benzo[d]imidazol-2-yl)thiazole-4-carboxamide] | 0.542 ± 0.05 µM |  | 1.04 ± 0.31 µM | 

Continued, in another order:

IC50 (CK1δkd; [1]) | activity against CK1δkd (in words, SAR discussion) (CK1δkd) | IC50 (GST-rat CK1δ; [1]) | SMILES | further results
0.865 ± 0.14 µM | diminished activity | 1.97 ± 0.85 µM | COC(=O)c1ccc2[nH]c(NC(=O)c3csc(NC(=O)c4ccccc4OC(F)(F)F)n3)nc2c1 [Compound 1, Methyl 2-(2-(2-(trifluoromethoxy)benzamido)-thiazole-4-carboxamido)-1H-benzo[d]imidazole-5-carboxylate] | IC50 (human CK1ε; [1]): 0.496 ± 0.1 µM
1.12 ± 0.19 µM |  | 0.935 ± 0.55 µM | O=C(Nc1nc2ccccc2[nH]1)c1csc(NC(=O)c2ccccc2OC(F)(F)F)n1 [Compound 8, N-(1H-Benzo[d]imidazol-2-yl)-2-(2-(trifluoromethoxy)benzamido)thiazole-4-carboxamide] | 
 | lost |  | Cn1c(NC(=O)c2csc(NC(=O)c3ccccc3OC(F)(F)F)n2)nc2ccccc21 [Compound 3, N-(1-Methyl-1H-benzo[d]imidazol-2-yl)-2-(2-(trifluoromethoxy)benz-amido)thiazole-4-carboxamide] | IC50 (CK1δkd; [2]): > 10 µM; IC50 (GST-rat CK1δ; [2]): > 10 µM
0.647 ± 0.04 µM | kinase activity was even more decreased | 0.991 ± 0.21 µM | O=C(Nc1nc2ccccc2o1)c1csc(NC(=O)c2ccccc2OC(F)(F)F)n1 [Compound 10, N-(Benzo[d]oxazol-2-yl)-2-(2-(trifluoromethoxy)benzamido)thiazole-4-carboxamide] | 

Reference: paper PMC3448056, “2-Benzamido-N-(1H-benzo[d]imidazol-2-yl)thiazole-4-carboxamide derivatives as potent inhibitors of CK1δ/ε” (Amino Acids, 2012)
